System: NCI H82 lung carcinoma cell line tumor xenografts
Test: In vivo tumor xenograft model
Settings: female nude mice, 12 days, monotherapy
Description: To characterize the functional effects of anti-angiogenic peptides in mouse models, tumor xenografts were generated in female nude mice using the NCI H82 lung carcinoma cell line. This cell line was chosen because its aggressiveness results in rapid tumor growth. Three peptides, a collagen derived, a CXC chemokine derived and a TSP1 containing protein derived peptide were administered once a day, intraperitoneally (i.p.), at doses 10 and 20 mg/kg/day, in a 200 microliter solution injection as individual agents and as a combination. The CXC protein GRO-α/CXCL1 derived peptide (human sequence: […] (SEQ ID NO: 2445); mouse sequence: […] (SEQ ID NO: 2441)), the TSP1 repeat-containing protein WISP-1 derived peptide (human sequence: GPWEPCSVTCSKGTRTRRR (SEQ ID NO: 2444); mouse sequence: GPWGPCSVTCSKGTQIRQR (SEQ ID NO: 2440)), and the type IV collagen alpha5 fibril derived peptide (human sequence: […] (SEQ ID NO: 2442) is the same as mouse sequence: […] (SEQ ID NO: 2443)). An equivalent volume of PBS was injected as control. The injections were repeated for 12 days.
A population of 10^6 cells were washed twice in PBS and gently resuspended to generate a single cell suspension. The cells were mixed with Matrigel (BD Biosciences) in a final 60% cell solution. Subsequently, the cells were injected into the flank area of immunosuppressed nude mice in a total volume of 100 μl. Following growth incubation of 5 to 6 days, the tumor size volume was calculated by measurements of tumor dimensions with calipers. Tumor growth was monitored to an initial average size of 100 mm^3, which developed within 6 days after inoculation. Peptides were administered once a day, intraperitoneally (i.p.), in doses of 10 mg/kg and 20 mg/kg. In the case of testing a combination each peptide was injected in a two day cycle of a different peptide per day. Equivalent volume of PBS solution was injected as control. The injections were continued for up to […]. A total of six animals per group were used for the experiments per peptide per concentration.

Row | Sequence | development of tumors (tumor volume) (10 mg/kg/day i.p. once a day) | development of tumors (tumor volume) (20 mg/kg/day i.p. once a day)
1 | GPWEPCSVTCSKGTRTRRR | suppressed the development of tumors | suppressed the development of tumors
2 | LRRFSTMPFMFCNINNVCNF | suppressed the development of tumors | suppressed the development of tumors
3 | NGRKACLNPASPIVKKIIEKMLNS [CXC protein GRO-α/CXCL1 derived peptide] | suppressed the development of tumors | suppressed the development of tumors

— US9187544B2, “Peptide modulators of angiogenesis and use thereof” (The Johns Hopkins University, priority 2007, dated 2015)
